Measured values as given in US10543247B2, “Aloe preparation for skin enhancement” (Woodcliff Skincare Solutions, Inc., priority 2007, dated 2020).

Assays:
scald hyperalgesia = conditions: compared with phenylbutazone; cited from earlier work
human TLR2 = target: T1, human TLR2 (Homo sapiens, UniProt O60603); assay: TLR2 expression vector experiment: HEK 293 cells with NF-kappa B reporter and pDUO-hCD14/TLR2; format: cell-based; conditions: HEK 293 cells expressing TLR2 and CD14; 6 hours; FIG. 10B
T1 construct: host or cells: HEK 293 cells, transient transfection by electroporation
T1 sequence (O60603 21-784): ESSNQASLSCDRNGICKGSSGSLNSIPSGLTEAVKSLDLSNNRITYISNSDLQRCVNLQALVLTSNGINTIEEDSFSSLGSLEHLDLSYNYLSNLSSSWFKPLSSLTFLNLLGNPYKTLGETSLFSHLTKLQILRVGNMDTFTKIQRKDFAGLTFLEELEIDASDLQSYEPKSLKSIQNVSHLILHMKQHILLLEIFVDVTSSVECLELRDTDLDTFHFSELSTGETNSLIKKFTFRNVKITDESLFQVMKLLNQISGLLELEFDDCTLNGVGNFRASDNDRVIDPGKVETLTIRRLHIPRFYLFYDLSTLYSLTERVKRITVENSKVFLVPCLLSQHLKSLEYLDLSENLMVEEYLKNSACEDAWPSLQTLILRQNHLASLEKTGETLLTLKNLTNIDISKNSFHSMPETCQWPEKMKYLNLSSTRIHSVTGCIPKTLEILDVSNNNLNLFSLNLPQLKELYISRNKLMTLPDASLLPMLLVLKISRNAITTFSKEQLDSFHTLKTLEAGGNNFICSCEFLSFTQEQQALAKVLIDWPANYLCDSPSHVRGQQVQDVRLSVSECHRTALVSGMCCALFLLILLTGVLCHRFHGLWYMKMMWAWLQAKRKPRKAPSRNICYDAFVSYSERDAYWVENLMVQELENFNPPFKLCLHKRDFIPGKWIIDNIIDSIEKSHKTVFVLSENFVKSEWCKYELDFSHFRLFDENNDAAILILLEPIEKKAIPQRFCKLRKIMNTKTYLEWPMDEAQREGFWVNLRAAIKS
Protocol: HEK 293 cells were cultured in DMEM/F12 medium supplemented with fetal bovine serum (10%) and 1% penicillin-streptomycin at 37° C., under 5% CO2. Actively growing cells were transiently transfected with the appropriate plasmid(s) using electroporation (at 150 V and one 70-ms pulse). Following electroporation, cells were plated at a density of 5×10^4 cells in 200 μl/well of culture medium. After 48 hours, agents to be tested were added to transfected cells. Six hours after addition of samples, cells were harvested and luciferase activity measured. The NF-kappa B plasmid construct (pBIIXLUC) contained two copies of NF-kappa B motif from HIV/IgK. Plasmids co-expressing human CD14 and human TLR2 (pDUO-hCD14/TLR2) were purchased from InvivoGen. Zymosan was purchased from Sigma, Staphylococcus aureus peptidoglycan from Fluka and ultra pure Salmonella minnesota LPS from List Biological Laboratories, Inc.
FIGS. 10A-10B depict that AloeEx (batch 2-5-05) acts through TLR2. HEK 293 cells (cell line with minimal TLR expression) were transiently transfected with a luciferase reporter gene construct containing two binding sites for NF-kappa B, alone (FIG. 10A), or in combination with the pDUO-hCD14/TLR2 expression plasmid (FIG. 10B). […] Luciferase activity was determined 6 hours after addition of agents.

Substance	inhibitory effect on scald hyperalgesia (scald hyperalgesia)	activation of NF-kappa B (human TLR2)
O-acetylated-D-mannan [O-acetylated-D-mannan (T-2-HN)]	more marked inhibitory effect than phenylbutazone	–
peptidoglycan	–	also activated NF-kappa B
